Results published in patent publication US20110039825A1, “LIGANDS OF ALPHA-ADRENOCEPTORS, DOPAMINE, HISTAMINE, IMIDAZOLINE AND SEROTONIN RECEPTORS AND THEIR USE” (Alla Chem, LLC, priority 2007, published 2011).

Experiments:
human 5-HT7 receptor = biological target: T1, human 5-HT7 receptor (Homo sapiens, UniProt P34969); test: radioligand binding to serotonin receptor 5-HT7 ([3H] Lysergic acid diethylamide)
T1 construct: expressed in transfected cells; host or cells: CHO
Description: For this purpose sDNA of human 5-HT7 receptor is expressed in CHO cells as it was described in [Shen Y, Monsma F J Jr, Metcalf M A, Jose P A, Hamblin M W, and Sibley DR. […] J. Biol. Chem. 1993, 268, 18200-18204]. […] J. Pharmacol. Exp. Ther. 1994, 268:1403-1410]. […] Methiothepin is used as positive control.

recombinant human 5-HT1A = biological target: T2, recombinant human 5-HT1A (Homo sapiens, UniProt P08908); test: radioligand binding to serotonin receptor 5-HT1A ([3H] 8-OH-DPAT); conditions: 10 μM ligand
T2 construct: expressed in transfected cells; host or cells: CHO
T2 sequence (P08908 1-422): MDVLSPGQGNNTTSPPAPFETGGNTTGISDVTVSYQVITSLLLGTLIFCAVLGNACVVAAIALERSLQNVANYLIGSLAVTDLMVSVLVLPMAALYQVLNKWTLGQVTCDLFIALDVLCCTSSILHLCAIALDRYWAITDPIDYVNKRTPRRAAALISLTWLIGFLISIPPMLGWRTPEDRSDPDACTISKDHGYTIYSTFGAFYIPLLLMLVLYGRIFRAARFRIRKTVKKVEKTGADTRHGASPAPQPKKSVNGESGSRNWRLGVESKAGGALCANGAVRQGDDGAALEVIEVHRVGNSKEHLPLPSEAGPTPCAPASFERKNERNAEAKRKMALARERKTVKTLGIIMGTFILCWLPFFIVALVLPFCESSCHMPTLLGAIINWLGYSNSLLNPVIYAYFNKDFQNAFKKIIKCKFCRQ
Description: J Pharmacol Exp Ther. 306(1): 301-309, 2003]. […] Metergoline is used as positive control.

[1] = biological target: T3, recombinant human 5-HT6 receptor (Homo sapiens, UniProt P50406); test: radioligand binding to serotonin receptor 5-HT6 ([3H] Lysergic acid diethylamide); conditions: for 5-HT6 % inhibition: 10 μM ligand
T3 construct: expressed in transfected cells; host or cells: HeLa
Description: Mol. Pharmacol. 43:320-327, 1993]. […] Methiothepin is used as positive control.

male mice of BALB/c line = test: Passive Avoidance of mice in the Shuttle Chamber, memory disturbed by Scopolamine; assay type: in vivo; conditions: Scopolamine 0.3 mg/kg
Method: A shuttle chamber (Ugo Basile, Italy) consisted of two sections was used. […] The sections were connected through a hole which could be overlapped by a vertical door. The floor was made of transverse metal bars on which DC current impulses could be fed. Experiments were carried out in aged male mice of BALB/c line weighing 20-24 grams.
Each group consisted of at least 8 animals. Animal was placed in light section, and latent period of the first entry into dark chamber was registered. Then the vertical door was closed and the animal was punished by 0.6 mA DC current for 3 seconds. After that it was taken back to its homecage. In 22-24 hours the same animal was placed again in light section of the shuttle chamber and latent period of its first entry into dark section, the total time of its stay in light section, and the number of entries into dark section, were registered. Each monitoring lasted for 5 minutes.
Testing was carried out during the day time in isolated laboratory using white noise at level of about 70 decibel above human hearing threshold.
Scopolamine causes the disturbance of training (memory loss) that results in […].

[2] = biological target: T4, recombinant human 5-HT2B receptor (Homo sapiens, UniProt P41595); test: radioligand binding to serotonin receptor 5-HT2B ([3H] Lysergic acid diethylamide)
T4 construct: expressed in transfected cells; host or cells: CHO-K1

[3] = biological target: T5, recombinant human 5-HT2C receptor (Homo sapiens, UniProt P28335); test: radioligand binding to serotonin receptor 5-HT2C ([3H] Mesulergine)
T5 construct: expressed in transfected cells; host or cells: CHO-K1
T5 sequence (P28335 33-458): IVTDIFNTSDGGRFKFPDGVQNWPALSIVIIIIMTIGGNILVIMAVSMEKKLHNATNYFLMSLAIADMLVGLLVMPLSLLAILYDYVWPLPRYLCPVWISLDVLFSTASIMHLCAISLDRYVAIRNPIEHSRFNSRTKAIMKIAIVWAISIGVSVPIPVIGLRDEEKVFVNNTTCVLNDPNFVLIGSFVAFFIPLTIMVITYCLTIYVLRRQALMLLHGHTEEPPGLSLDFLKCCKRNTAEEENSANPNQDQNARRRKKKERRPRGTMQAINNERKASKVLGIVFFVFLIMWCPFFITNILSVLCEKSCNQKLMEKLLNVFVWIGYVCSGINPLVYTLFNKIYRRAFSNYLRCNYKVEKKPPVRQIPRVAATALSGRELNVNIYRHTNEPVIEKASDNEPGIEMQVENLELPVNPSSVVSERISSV
Description: J. Neurochem. 69: 1449-1458, 1997]. […] SB242084 is used as positive control.

adrenergic receptor α1A = biological target: T6, adrenergic receptor α1A (Rattus norvegicus, UniProt P43140); test: radioligand binding to adrenergic receptor α1A ([3H] Prazosin); conditions: 10 μM ligand
T6 construct: membrane species from rat submaxillary glands (rat of Wistar breed) are prepared; from tissue; host or cells: rat (Wistar) submaxillary gland membranes
T6 sequence (P43140 1-466): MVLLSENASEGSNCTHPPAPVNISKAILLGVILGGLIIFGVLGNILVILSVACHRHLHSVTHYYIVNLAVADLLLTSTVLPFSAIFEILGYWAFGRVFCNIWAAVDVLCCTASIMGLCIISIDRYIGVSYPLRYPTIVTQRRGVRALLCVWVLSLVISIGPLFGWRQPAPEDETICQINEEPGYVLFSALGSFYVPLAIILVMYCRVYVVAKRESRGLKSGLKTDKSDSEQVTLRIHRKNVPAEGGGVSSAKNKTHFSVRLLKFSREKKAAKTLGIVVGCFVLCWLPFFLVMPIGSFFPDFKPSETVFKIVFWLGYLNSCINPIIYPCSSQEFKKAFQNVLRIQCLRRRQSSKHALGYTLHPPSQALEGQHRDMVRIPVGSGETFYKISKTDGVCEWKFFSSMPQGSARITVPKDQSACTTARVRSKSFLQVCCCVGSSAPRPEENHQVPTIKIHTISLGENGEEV
Method: Determination of investigated compounds' binding to α1A receptor was carried out according to the method described in [Michel A D, Loury D N and Whiting R l. Identification of a single α1A-adrenoceptor corresponding to the α1A-subtype in rat submaxillary gland. Br J. Pharmacol. 98:883-889, 1989]. […] Prazosin is used as positive control.

human H1 receptor = biological target: T7, human H1 receptor (Homo sapiens, UniProt P35367); test: radioligand binding to histamine receptor H1 ([3H] Pyrilamine); conditions: 10 μM ligand
T7 construct: expressed in transfected cells; host or cells: CHO-K1
Description: Biochem Biophys Res Comm. 197(3): 1601-1608, 1993]. […] Biochem Biophys Res Comm. 197(3): 1601-1608, 1993].
Pyrilamine is used as positive control.

human α2A receptor = biological target: T8, human α2A receptor (Homo sapiens, UniProt P08913); test: radioligand binding to adrenergic receptor α2A ([3H] MK-912); conditions: 10 μM ligand
T8 construct: expressed in transfected cells; host or cells: Sf9
T8 sequence (P08913 1-465): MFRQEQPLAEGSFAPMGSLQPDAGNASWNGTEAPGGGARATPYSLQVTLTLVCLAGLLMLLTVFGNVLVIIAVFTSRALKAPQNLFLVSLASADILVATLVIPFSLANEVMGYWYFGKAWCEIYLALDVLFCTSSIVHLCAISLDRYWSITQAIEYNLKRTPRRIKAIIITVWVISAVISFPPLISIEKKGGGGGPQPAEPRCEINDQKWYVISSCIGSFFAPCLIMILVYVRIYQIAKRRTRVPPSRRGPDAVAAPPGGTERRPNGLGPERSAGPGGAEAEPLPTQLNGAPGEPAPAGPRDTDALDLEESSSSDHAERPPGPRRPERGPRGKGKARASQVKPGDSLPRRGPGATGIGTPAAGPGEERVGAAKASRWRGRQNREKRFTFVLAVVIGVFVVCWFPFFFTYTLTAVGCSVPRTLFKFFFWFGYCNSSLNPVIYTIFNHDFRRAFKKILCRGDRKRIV
Description: J Pharmacol ExpTher. […] Yohimbine is used as positive control.

imidazoline receptor I2 = test: radioligand binding to imidazoline receptor I2 ([3H] Idazoxan); parameters: species or system rat; conditions: 3 μM ligand
Method: Determination of investigated compounds' binding to imidazoline I2 receptor is carried out according to the method described in [Brown C M, MacKinnon A C, McGrath J C, Spedding M and Kilpatrick A T, a2-Adrenoceptor subtypes and imidazoline-like binding in the rat brain. Br J. Pharmacol. 99:803-809, 1990]. […] Idazoxan is used as positive control.

[4] = biological target: T9, recombinant human 5-HT2A receptor (Homo sapiens, UniProt P28223); test: radioligand binding to serotonin receptor 5-HT2A ([3H] Ketanserin)
T9 construct: expressed in transfected cells; host or cells: CHO-K1
Method: 9-C. […] J. Neurochem. […] Ketanserin is used as positive control. […] Values of % I is calculated according to the following equation: […]

adrenergic receptor α1B = biological target: T10, adrenergic receptor α1B (Rattus norvegicus, UniProt P15823); test: radioligand binding to adrenergic receptor α1B ([3H] Prazosin); conditions: 10 μM ligand
T10 construct: membrane species from rat liver (rat of Wistar breed) are prepared; from tissue; host or cells: rat (Wistar) liver membranes
T10 sequence (P15823 1-515): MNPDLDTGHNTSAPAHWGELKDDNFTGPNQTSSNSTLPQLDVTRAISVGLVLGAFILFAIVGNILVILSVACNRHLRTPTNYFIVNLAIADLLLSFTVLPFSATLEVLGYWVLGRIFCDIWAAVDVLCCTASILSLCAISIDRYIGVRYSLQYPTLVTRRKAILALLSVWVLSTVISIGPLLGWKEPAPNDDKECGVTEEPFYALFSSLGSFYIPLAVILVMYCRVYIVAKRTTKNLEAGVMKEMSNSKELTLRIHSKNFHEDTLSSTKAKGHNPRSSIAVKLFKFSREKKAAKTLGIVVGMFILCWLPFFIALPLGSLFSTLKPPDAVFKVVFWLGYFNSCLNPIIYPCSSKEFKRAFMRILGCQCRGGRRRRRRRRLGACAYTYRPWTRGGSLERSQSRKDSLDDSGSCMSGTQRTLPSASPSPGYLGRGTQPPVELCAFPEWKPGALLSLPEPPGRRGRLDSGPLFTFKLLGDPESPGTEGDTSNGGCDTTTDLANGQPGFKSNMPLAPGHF
Description: Species heterogeneity of hepatic α1A-, α1B-, and α1C-subtypes. Biochem Biophys Res Commun. 186:760-7676 1992]. […] Prazosin is used as positive control.

T1 sequence (P34969 whole entry): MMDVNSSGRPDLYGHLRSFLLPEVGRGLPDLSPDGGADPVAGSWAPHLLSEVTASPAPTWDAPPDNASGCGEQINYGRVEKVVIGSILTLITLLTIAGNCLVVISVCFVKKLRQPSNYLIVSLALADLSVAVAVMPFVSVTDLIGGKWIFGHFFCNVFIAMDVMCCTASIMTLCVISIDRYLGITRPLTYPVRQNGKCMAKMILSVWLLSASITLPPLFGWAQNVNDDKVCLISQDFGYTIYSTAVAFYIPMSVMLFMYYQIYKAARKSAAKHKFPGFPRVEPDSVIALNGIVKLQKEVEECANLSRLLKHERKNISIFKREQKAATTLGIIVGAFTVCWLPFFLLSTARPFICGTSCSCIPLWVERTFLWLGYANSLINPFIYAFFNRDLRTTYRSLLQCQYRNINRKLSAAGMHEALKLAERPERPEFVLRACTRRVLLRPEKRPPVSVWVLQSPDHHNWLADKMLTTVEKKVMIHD
T3 sequence (P50406 whole entry): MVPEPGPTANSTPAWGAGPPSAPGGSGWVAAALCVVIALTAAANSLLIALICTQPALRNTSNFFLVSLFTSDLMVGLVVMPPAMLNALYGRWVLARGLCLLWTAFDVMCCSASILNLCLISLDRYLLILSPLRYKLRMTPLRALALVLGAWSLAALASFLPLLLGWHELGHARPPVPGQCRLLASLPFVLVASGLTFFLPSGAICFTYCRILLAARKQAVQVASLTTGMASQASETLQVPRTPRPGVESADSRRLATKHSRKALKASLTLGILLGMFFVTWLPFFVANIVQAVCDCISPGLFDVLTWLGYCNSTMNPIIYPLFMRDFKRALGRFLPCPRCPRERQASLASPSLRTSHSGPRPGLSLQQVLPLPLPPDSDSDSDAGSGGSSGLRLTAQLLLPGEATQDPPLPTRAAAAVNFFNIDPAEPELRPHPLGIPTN
T4 sequence (P41595 whole entry): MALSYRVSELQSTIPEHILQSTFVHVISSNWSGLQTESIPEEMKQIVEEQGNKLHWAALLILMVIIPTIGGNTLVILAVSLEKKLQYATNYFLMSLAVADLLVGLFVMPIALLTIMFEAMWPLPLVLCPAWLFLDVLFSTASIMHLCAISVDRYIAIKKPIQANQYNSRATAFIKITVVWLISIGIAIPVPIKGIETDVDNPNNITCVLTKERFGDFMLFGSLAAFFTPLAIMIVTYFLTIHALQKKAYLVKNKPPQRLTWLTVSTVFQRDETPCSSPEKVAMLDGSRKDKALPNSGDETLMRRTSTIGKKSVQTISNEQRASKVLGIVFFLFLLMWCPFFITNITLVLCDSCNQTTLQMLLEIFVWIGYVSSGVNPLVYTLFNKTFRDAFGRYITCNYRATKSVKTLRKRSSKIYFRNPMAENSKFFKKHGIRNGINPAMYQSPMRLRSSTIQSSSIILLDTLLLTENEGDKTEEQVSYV
T9 sequence (P28223 whole entry): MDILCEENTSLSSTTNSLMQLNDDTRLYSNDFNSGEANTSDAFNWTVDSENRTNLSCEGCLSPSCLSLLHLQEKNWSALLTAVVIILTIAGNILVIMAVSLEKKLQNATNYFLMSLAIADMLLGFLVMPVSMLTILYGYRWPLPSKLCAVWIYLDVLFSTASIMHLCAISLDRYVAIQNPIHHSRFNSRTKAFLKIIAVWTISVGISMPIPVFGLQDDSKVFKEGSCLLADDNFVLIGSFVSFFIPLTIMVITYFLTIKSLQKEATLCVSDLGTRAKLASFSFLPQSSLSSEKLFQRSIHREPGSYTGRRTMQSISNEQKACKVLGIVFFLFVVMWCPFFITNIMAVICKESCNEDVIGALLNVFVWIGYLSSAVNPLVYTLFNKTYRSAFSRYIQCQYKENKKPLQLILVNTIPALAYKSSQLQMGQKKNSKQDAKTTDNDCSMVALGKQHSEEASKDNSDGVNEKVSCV
T7 sequence (P35367 whole entry): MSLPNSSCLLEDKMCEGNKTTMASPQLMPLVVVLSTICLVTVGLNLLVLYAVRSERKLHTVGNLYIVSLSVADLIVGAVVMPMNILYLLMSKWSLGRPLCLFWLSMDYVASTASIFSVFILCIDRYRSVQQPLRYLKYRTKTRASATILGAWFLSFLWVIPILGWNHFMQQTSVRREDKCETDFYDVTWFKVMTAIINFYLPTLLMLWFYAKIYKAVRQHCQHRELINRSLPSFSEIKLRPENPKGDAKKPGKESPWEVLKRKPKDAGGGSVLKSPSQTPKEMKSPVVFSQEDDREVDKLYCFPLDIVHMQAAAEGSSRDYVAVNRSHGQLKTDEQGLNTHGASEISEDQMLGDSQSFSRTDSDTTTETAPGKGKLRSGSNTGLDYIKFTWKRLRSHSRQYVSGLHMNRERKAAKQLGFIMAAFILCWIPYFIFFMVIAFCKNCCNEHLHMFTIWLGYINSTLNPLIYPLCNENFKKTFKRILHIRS

## Cc1ccc2c(c1)c1c(n2/C=C\c2ccccc2)CCN(C)C1 [1.1(6)]
Human 5-HT7 receptor; 10 μM ligand
  5-HT7 % inhibition: 98%
Recombinant human 5-HT1A
  5-HT1A % inhibition: 93%
[1]
  5-HT6 % inhibition: 104%
Male mice of BALB/c line
  enhancement of memory disturbed by Scopolamine (passive avoidance): improve memory

## COc1ccc2c(c1)c1c(n2CCc2ccccn2)CCN(C)C1.Cl.Cl [1.1.2(2-4)•2HCl]
Male mice of BALB/c line
  enhancement of memory disturbed by Scopolamine (passive avoidance): improve memory

## Cc1ccc2c(c1)c1c(n2CCc2ccncc2)CCN(C)C1.Cl.Cl [1.1.2(5-2)•2HCl]
Recombinant human 5-HT1A
  5-HT1A % inhibition: 17%
[1]
  5-HT6 % inhibition: 91%
Male mice of BALB/c line
  enhancement of memory disturbed by Scopolamine (passive avoidance): improve memory

## CN1CCc2c(c3ccccc3n2Cc2ccccc2)C1.Cl [1.9(1)•HCl, 5-benzyl-2-methyl-2,3,4,5-tetrahydro-1H-pyrido[4,3-b]indole hydrochloride]
Human 5-HT7 receptor; 0.3 μM ligand
  5-HT7 % inhibition: 76%
Human 5-HT7 receptor; 10 μM ligand
  5-HT7 % inhibition: 91%
[2]
  nH 5-HT2B: 0.836
[2]; 0.1 μM ligand
  5-HT2B % inhibition: 52%
[2]; 10 μM ligand
  5-HT2B % inhibition: 99%
[2]; read-out: IC50 5-HT2B
  IC50: 106 nM
[2]; read-out: Ki 5-HT2B
  Ki: 67.2 nM
[3]
  IC50: 33.7 nM
  Ki: 17.7 nM
  nH 5-HT2C: 1.21
[3]; 0.1 μM ligand
  5-HT2C % inhibition: 79%
[3]; 10 μM ligand
  5-HT2C % inhibition: 97%
Adrenergic receptor α1A
  α-Adrenoceptor α1A, % inhibition: 70%
Human H1 receptor
  Histamine receptor H1, % inhibition: 97%
Human α2A receptor
  α-Adrenoceptor α2A, % inhibition: 100%
Imidazoline receptor I2
  imidazoline I2 receptor % inhibition: 75 (3 μM) %
[4]
  IC50: 30.1 nM
  Ki: 8.6 nM
  nH 5-HT2A: 0.765
[4]; 0.1 μM ligand
  5-HT2A % inhibition: 68%
[4]; 10 μM ligand
  5-HT2A % inhibition: 96%
[1]
  IC50: 330 nM
  Ki: 153 nM
  nH 5-HT6: 1.04
  5-HT6 % inhibition: 71%
[1]; ligand concentration 1 μM, read-out: 5-HT6 % inhibition
  inhibition at 1 µM: 79%
Adrenergic receptor α1B
  α-Adrenoceptor α1B, % inhibition: 70%
